Data on two compounds can be found in publication PMC2943150 (Journal of medicinal chemistry, 2009).

Each structure is given as a SMILES string.

This assay addresses HIV-1 protease (Human immunodeficiency virus type 1 group M subtype B, UniProt P04585). Briefly: HIV-1 protease enzyme inhibition, assay protocol of Toth and Marshall. The assay is classed as biochemical.

The term Ki denotes the equilibrium dissociation constant of an inhibitor or competing ligand from its target. High values mean a looser hold on the target, low ones a stronger hold on the target. In turn, `COc1ccc2c(c1)OCCCC/C=C\CN(C[C@@H](O)[C@H](Cc1ccccc1)NC(=O)O[C@H]1CO[C@H]3OCC[C@H]31)S2(=O)=O` [Inhibitor 14e] registered an inhibitory constant (Ki) of 17 ± 1 pM. Under `COc1ccc2c(c1)OCCCCCCCN(C[C@@H](O)[C@H](Cc1ccccc1)NC(=O)O[C@H]1CO[C@H]3OCC[C@H]31)S2(=O)=O` [Inhibitor 15d] stands 80 ± 20 pM.
